The supplement of paper PMC11208160

Assay: recombinant UMI read abundance after kanamycin selection (control-corrected) (log10(CPM+1)); higher = more efficient recombination; extreme values may be limits of the assay; sequences stand for … in AGTGCAGAGAAAATCGGCCAGTTTTCTCTGCCTGCAGTCCGCATGCCGTGGGACCCCTTGGGTTCTAACCTGTTGCCTAGATTTATGCAGCGGACTGCCTTTCTCCCAAAGTGATAAACCGG…AGGTTGGTTTCACT; site = the 11-nt donor
Method in brief: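 Counts of recombinant UMIs were reported as log10(CPM+1). Before that, they were converted to CPM, averaged over replicates and scaled using control-derived factors. They came from PCR across the donor–target junction after Escherichia coli carrying the pair library and target plasmid was plated on IPTG (0.07 mM) plus kanamycin, or unselected, in two replicates each.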
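Note: IS621 bridge recombinase in Escherichia coli cells against a fixed T5 target plasmid.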

| Sequence | recombinant UMI read abundance (log10) |
| --- | --- |
| AGGCTTTCATGGACCGGTTTTCCCGGTAATCCGTATTTGAC (site AGACTTTCTGT) | 0.817 |
| AGGCTTTCATGGACCGGTTTTCCCGGTAATCCGTATTTGAC (site AGCCTTTCTGT) | 0.212 |
| AGGCTTTCATGGACCGGTTTTCCCGGTAATCCGTATTTGAC (site AGGCTTTCTGT) | 0.502 |
| AGGCTTTCATGGACCGGTTTTCCCGGTAATCCGTATTTGAC (site AGTCTTTCTGT) | 0 |
| AGGCTTTCATGGACCGGTTTTCCCGGTAATCCGTATTTGGC (site AGGCTTTCTGC) | 1.61 |
| AGGGATCCATGGACCGGTTTTCCCGGTAATCCGTATTTGAG (site AGGGATCCTCT) | 0.635 |
| AGGGCAACATGGACCGGTTTTCCCGGTAATCCGTATTTGTT (site AGGGCAACTAA) | 0.85 |
| AGGGGTTCATGGACCGGTTTTCCCGGTAATCCGTATTTGTC (site AGGGGTTCTGA) | 3.19 |
| AGGGTACCATGGACCGGTTTTCCCGGTAATCCGTATTTGTA (site AGGGTACCTTA) | 0.0065 |
| AGGGTTACATGGACCGGTTTTCCCGGTAATCCGTATTTGGG (site AGGGTTACTCC) | 0.175 |
| AGGTACGCATGGACCGGTTTTCCCGGTAATCCGTATTTGCC (site AGGTACGCTGG) | 2.36 |
| AGGTCGGCATGGACCGGTTTTCCCGGTAATCCGTATTTGTA (site AGGTCGGCTTA) | 1.01 |
| AGGTTACCATGGACCGGTTTTCCCGGTAATCCGTATTTGTG (site AGGTTACCTCA) | 0.0116 |
| AGGTTACCATGGACCGGTTTTCCCGGTAATCCGTATTTGTG (site AGGTTCCCTCA) | 0 |
| AGGTTACCATGGACCGGTTTTCCCGGTAATCCGTATTTGTG (site AGGTTGCCTCA) | 0.00949 |
| AGGTTACCATGGACCGGTTTTCCCGGTAATCCGTATTTGTG (site AGGTTTCCTCA) | 0.00461 |
| AGGTTCCCATGGACCGGTTTTCCCGGTAATCCGTATTTGTT (site AGGTTCCCTAA) | 0 |
| AGGTTCCCATGGACCGGTTTTCCCGGTAATCCGTATTTGTT (site AGGTTCCCTCA) | 0.0252 |
| AGGTTCCCATGGACCGGTTTTCCCGGTAATCCGTATTTGTT (site AGGTTCCCTGA) | 0 |
| AGGTTCCCATGGACCGGTTTTCCCGGTAATCCGTATTTGTT (site AGGTTCCCTTA) | 0 |
| AGGTTCGCATGGACCGGTTTTCCCGGTAATCCGTATTTGTG (site AGGTTCACTCA) | 0.217 |
| AGGTTCGCATGGACCGGTTTTCCCGGTAATCCGTATTTGTG (site AGGTTCCCTCA) | 0.015 |
| AGGTTCGCATGGACCGGTTTTCCCGGTAATCCGTATTTGTG (site AGGTTCGCTCA) | 0.666 |

| Sequence | recombinant UMI read abundance (log10) |
| --- | --- |
| AGGTTCGCATGGACCGGTTTTCCCGGTAATCCGTATTTGTG (site AGGTTCTCTCA) | 0 |
| AGGTTGACATGGACCGGTTTTCCCGGTAATCCGTATTTGCG (site AGGTTGACTCG) | 2 |
| AGTAAATCATGGACCGGTTTTCCCGGTAATCCGTATTTGGG (site GCCGTTCCTGA) | 0 |
| AGTAACACATGGACCGGTTTTCCCGGTAATCCGTATTTGCA (site AGGAAGACTTG) | 0 |
| AGTAACACATGGACCGGTTTTCCCGGTAATCCGTATTTGCA (site AGTAACACTTG) | 2.13 |
| AGTAACGCATGGACCGGTTTTCCCGGTAATCCGTATTTGCA (site AGTAACGCTTG) | 2.29 |
| AGTACCACATGGACCGGTTTTCCCGGTAATCCGTATTTGTT (site AGTACCACTAA) | 0.274 |
| AGTACGTCATGGACCGGTTTTCCCGGTAATCCGTATTTGTT (site AGTACGTCTAA) | 0.258 |
| AGTACGTCATGGACCGGTTTTCCCGGTAATCCGTATTTGTT (site CGTACGTCTAA) | 0.552 |
| AGTACGTCATGGACCGGTTTTCCCGGTAATCCGTATTTGTT (site GGTACGTCTAA) | 0.198 |
| AGTACGTCATGGACCGGTTTTCCCGGTAATCCGTATTTGTT (site TGTACGTCTAA) | 0.212 |
| AGTCCCACATGGACCGGTTTTCCCGGTAATCCGTATTTGAA (site AGTCCCACTTT) | 0.752 |
| AGTCCGCCATGGACCGGTTTTCCCGGTAATCCGTATTTGGG (site AGTCCGCCTCC) | 0.015 |
| AGTCGAGCATGGACCGGTTTTCCCGGTAATCCGTATTTGAG (site AGTCGAGCTCT) | 1.6 |
| AGTCTTACATGGACCGGTTTTCCCGGTAATCCGTATTTGCG (site AGTCTTACTCG) | 1.32 |
| AGTGAATCATGGACCGGTTTTCCCGGTAATCCGTATTTGAG (site AGTGAATCTCT) | 2.17 |
| AGTGCTGCATGGACCGGTTTTCCCGGTAATCCGTATTTGCA (site AGTGCTGCTTG) | 1.21 |
| AGTGGAACATGGACCGGTTTTCCCGGTAATCCGTATTTGTT (site AGTGGAACTAA) | 1.56 |
| AGTGGAACATGGACCGGTTTTCCCGGTAATCCGTATTTGTT (site CGTGGAACTAA) | 0.295 |
| AGTGGAACATGGACCGGTTTTCCCGGTAATCCGTATTTGTT (site GGTGGAACTAA) | 0.00617 |
| AGTGGAACATGGACCGGTTTTCCCGGTAATCCGTATTTGTT (site TGTGGAACTAA) | 0.00958 |
| AGTGGGTCATGGACCGGTTTTCCCGGTAATCCGTATTTGCA (site AGTGGGTCTTG) | 2.92 |
| AGTGTATCATGGACCGGTTTTCCCGGTAATCCGTATTTGCA (site ACAGTATCTTG) | 1.69 |

| Sequence | recombinant UMI read abundance (log10) |
| --- | --- |
| AGTGTATCATGGACCGGTTTTCCCGGTAATCCGTATTTGCA (site AGTGTATCTTG) | 2.25 |
| AGTGTCACATGGACCGGTTTTCCCGGTAATCCGTATTTGGC (site AGTGTCACTGC) | 2.62 |
| AGTGTCTCATGGACCGGTTTTCCCGGTAATCCGTATTTGCA (site AGTGTCTCTTG) | 3.07 |
| AGTTAGACATGGACCGGTTTTCCCGGTAATCCGTATTTGAG (site AGTTAGACTCT) | 1.23 |
| AGTTAGACATGGACCGGTTTTCCCGGTAATCCGTATTTGAG (site CGTTAGACTCT) | 1.06 |
| AGTTAGACATGGACCGGTTTTCCCGGTAATCCGTATTTGAG (site GGTTAGACTCT) | 0.353 |
| AGTTAGACATGGACCGGTTTTCCCGGTAATCCGTATTTGAG (site TGTTAGACTCT) | 0.674 |
| AGTTATTCATGGACCGGTTTTCCCGGTAATCCGTATTTGCA (site AGTTATTCTTG) | 2.11 |
| AGTTCAGCATGGACCGGTTTTCCCGGTAATCCGTATTTGGG (site AGATCAGCTCC) | 0.0116 |
| AGTTCAGCATGGACCGGTTTTCCCGGTAATCCGTATTTGGG (site AGCTCAGCTCC) | 0.0322 |
| AGTTCAGCATGGACCGGTTTTCCCGGTAATCCGTATTTGGG (site AGGTCAGCTCC) | 0.0161 |
| AGTTCAGCATGGACCGGTTTTCCCGGTAATCCGTATTTGGG (site AGTTCAGCTCC) | 0.017 |
| AGTTCTGCATGGACCGGTTTTCCCGGTAATCCGTATTTGTT (site AGTTCTGCTAA) | 0.0478 |
| AGTTGATCATGGACCGGTTTTCCCGGTAATCCGTATTTGTC (site AGTTGATCTGA) | 1.94 |
| ATAAAATCATGGACCGGTTTTCCCGGTAATCCGTATTTGCC (site ATAAAATCTGG) | 1.66 |
| ATAAAGCCATGGACCGGTTTTCCCGGTAATCCGTATTTGAC (site ATAAAGCCTGT) | 0 |
| ATAAAGCCATGGACCGGTTTTCCCGGTAATCCGTATTTGAC (site ATAACGCCTGT) | 0 |
| ATAAAGCCATGGACCGGTTTTCCCGGTAATCCGTATTTGAC (site ATAAGGCCTGT) | 0 |
| ATAAAGCCATGGACCGGTTTTCCCGGTAATCCGTATTTGAC (site ATAATGCCTGT) | 0 |
| ATAACAACATGGACCGGTTTTCCCGGTAATCCGTATTTGAA (site ATAACAACTTT) | 1.46 |
| ATAACAGCATGGACCGGTTTTCCCGGTAATCCGTATTTGTT (site ATAACAGCTAA) | 1.92 |
| ATAACGCCATGGACCGGTTTTCCCGGTAATCCGTATTTGAC (site ATAAAGCCTGT) | 0 |
